{"source": "patent US20240299410A1", "about": "(Woolsey Pharmaceuticals, Inc., priority 2022, published 2024)", "origin": "cited, not measured here", "key": {"[1]": {"settings": "oral fasudil in drinking water; cited from earlier work"}, "SOD mice": {"system": "SOD mice", "settings": "cited from earlier work; for motor function: presymptomatic SOD mice, 30 mg/kg in drinking water (Günther et al. 2014)"}, "[2]": {"settings": "humans, intravenous administration, after an hour; cited from earlier work"}, "human ALS patients": {"system": "human ALS patients", "settings": "three ALS patients, 30 mg intravenously twice daily over 20 consecutive working days; cited from earlier work"}, "[3]": {"settings": "male SOD mice, both 30 mg/kg and 100 mg/kg (Takata 2013)"}}, "note": "Where a name gives a salt, the structure may show the parent alone. Read-outs that look alike come from different tables or passages of the source.", "data": [{"smiles": "O=S(=O)(c1cccc2c(O)nccc12)N1CCCNCC1", "note": "[M3, hydroxyfasudil]", "values": [{"measurement": "M3 in male rats relative to female rats", "setting": "[1]", "result": "~7", "unit": "fold"}]}, {"smiles": "C[C@@H](N)[C@H]1CC[C@H](C(=O)Nc2ccncc2)CC1", "note": "[Y-27632]", "values": [{"measurement": "motor function", "setting": "SOD mice; female", "result": "did not significantly improve motor function"}, {"measurement": "motor function", "setting": "SOD mice; male", "result": "improved motor function"}]}, {"smiles": "O=S(=O)(c1cccc2cnccc12)N1CCCNCC1", "note": "[fasudil, Hexahydro-1-(5-isoquinolinesulfonyl)-1H-1,4-diazepine monohydrochloride hemihydrate]", "values": [{"measurement": "motor behavior", "setting": "SOD mice; male SOD mice, 30 mg/kg and 100 mg/kg beginning at disease onset (Günther 2017)", "result": "significantly improved motor behavior"}, {"measurement": "survival time", "setting": "SOD mice; [3]", "result": "prolonged survival time"}, {"measurement": "symptom onset (motor performance, motor neuron loss)", "setting": "SOD mice; [3]", "result": "delayed symptom onset"}, {"measurement": "prolonging disease duration, 100 mg/kg versus 30 mg/kg", "setting": "SOD mice; presymptomatic female SOD mice, oral (Tönges et al. 2013)", "result": "not as effective at prolonging disease duration as the lower dose"}, {"measurement": "mixture of fasudil and M3 in CSF", "setting": "[2]", "result": "50/50"}, {"measurement": "outcome of compassionate use treatment", "setting": "human ALS patients", "result": "no conclusive results beyond safety"}]}]}
